Tests used:
[1] = rats, cited from earlier work
[2] = cited from earlier work
[3] = tested on: older Labrador Retrievers; assay: ADL-Jump (jumping over hurdles) of older dogs; format: in vivo, Labrador Retriever dogs; settings: 2 mg/kg, across all four quarters
Procedure: A total of 39 older Labrador Retrievers are fed a nutritionally-balanced composition providing mannoheptulose at levels of 0 or 2 mg/kg of body weight of the dog. Average age of the dogs (12 neutered males, 27 spayed females) at the start of a 4-year study is 6.7 years with a range of 5.1 to 8.2 years of age for the youngest and oldest dog within the cohort, respectively. The 0 mg/kg composition is fed as a nutritionally-balanced control composition (Eukanuba Senior Maintenance Formula) and it contains no mannoheptulose, avocado extract or avocado meal. The 2 mg/kg composition is the nutritionally-balanced control composition formulated with avocado extract to provide mannoheptulose at a dose of 2 mg/kg body weight of the dog. The nutritionally-balanced composition containing 0 mg/kg mannoheptulose is referred to as Diet 1 within this Example. The nutritionally-balanced composition containing 2 mg/kg mannoheptulose is referred to as Diet 2 within this Example. […]
Shoulder height of each individual dog is measured using a tape measure and recorded. […]
The ADL-Table activity requires the dog to jump on to and down from the platform of four tables of graduated heights, starting with the lowest table height first. […] For both activities, dogs are scored for the number of attempts at each graduated height and the successful completion of each height. […]

[4] = Pharmacokinetics of mannoheptulose, twice daily in a nutritionally-balanced composition, older Labrador Retrievers; format: in vivo, Labrador Retriever dogs; settings: 2 mg/kg; for half-life: female, Labrador Retriever, dog, plasma, oral
Procedure: The pharmacokinetics of mannoheptulose can be determined in ten adult, female Labrador Retriever dogs fed a nutritionally-balanced composition providing mannoheptulose at levels of 0 or 2 mg/kg of body weight of the dog. Mannoheptulose is provided as avocado extract in the 2 mg/kg diet. The mean age of the dogs is 7.1 years and the age ranges from 5.3 to 8.4 years. Dogs are age-matched across the two composition groups. The average body weight of all dogs is 29 kg and ranges from 25 to 35 kg. The 0 mg/kg composition is fed as a nutritionally-balanced control composition (Eukanuba Senior Maintenance Formula) and it contains no mannoheptulose, avocado extract or avocado meal. The 2 mg/kg composition is the nutritionally-balanced control composition formulated to contain avocado extract to provide mannoheptulose at a dose of 2 mg/kg of body weight of the dog. The amount of composition offered to the dogs is based on feeding guidelines for the control composition and the target weight range and body condition of the dogs. Dogs are fed one-half their daily allotment of composition at 0730 and the remaining half at 1330. Dogs 1, 2, 3, 4 and 5 are fed the composition containing 2 mg/kg mannoheptulose and dogs 6, 7, 8, 9 and 10 are fed the composition containing 0 mg/kg mannoheptulose. Pharmacokinetics of mannoheptulose following twice daily administration of mannoheptulose in a nutritionally-balanced composition is determined by collecting serial blood samples (3 mL) from each dog using a Vacutainer blood collection system and jugular venipuncture. […] Plasma mannoheptulose concentrations are measured using high-performance liquid chromatography tandem mass spectrometry as described herein below.
A one-compartment model is used to calculate mannoheptulose pharmacokinetics based on plasma mannoheptulose levels following twice daily oral administration of mannoheptulose in a nutritionally-balanced composition (PV(t)). The model is: PV(t)=dose/(a·BW)e^−kt where: a=mannoheptulose pool size (dose/(enrichment at to)), BW=body weight, k=rate constant of elimination (In Et−1n E0)/−t, and t=time.
High performance liquid chromatography tandem mass spectrometry (HPLC/MS/MS) is utilized to determine the amount of mannoheptulose present in the plasma of adult dogs. D-mannoheptulose and its chemical analog internal standard (D7-glucose) are isolated from dog plasma by a protein precipitation procedure (described herein below) using a 96-well format. The analyte and internal standard are subjected to reverse-phase high performance liquid chromatographic (HPLC) analysis on a polymeric amino column (2.1×150 mm, 5-μm particles). Detection and quantitation is by mass spectrometry (MS) operating under multiple reaction monitoring MS/MS conditions. Concentrations of D-mannoheptulose in dog plasma can be quantitated from approximately 20 to 5000 ng/mL. The assay requires a 0.1 mL aliquot of dog plasma harvested from a Na2EDTA anti-coagulant blood collection tube. Specimen concentrations are determined by back-calculation using a weighted (1/x^2) linear regression of a calibration curve generated from prepared D-mannoheptulose calibration standards.

[5] = twice daily, after the afternoon meal
[6] = twice daily, after the morning meal

O=C(CO)[C@@H](O)[C@@H](O)[C@H](O)[C@H](O)CO [mannoheptulose]
injected mannoheptulose remained in the body ([1]; a day after the injection): 5% | injected mannoheptulose excreted unchanged ([1]; injection): 66% | injected mannoheptulose metabolized ([1]; injection): 29% | mannoheptulose ingested appearing in urine ([2]; after oral administration): About 5% | safety of oral administration ([2]; humans, doses of 10 grams, orally): safely administered | percentage of older dogs successfully jumping heights vs composition devoid of mannoheptulose [3]: a greater percentage of older dogs are able to successfully jump all heights | half-life [4, 5]: 5.63 h | half-life [4, 6]: 5.42 h | order of plasma kinetics ([4]; twice daily oral): first order kinetics | return of plasma mannoheptulose to undetectable levels ([4]; twice daily): by the following morning | turnover time [4, 5]: 3.90 h | turnover time [4, 6]: 7.8 h | time to second peak in plasma mannoheptulose after afternoon meal ([4]; twice daily, afternoon meal): 4 h | time to peak plasma mannoheptulose levels after initial feeding ([4]; twice daily, morning meal): 4 h

Source: US20090252834A1, “Compositions comprising glucose anti-metabolites” (priority 2004, published 2009)
